The target in the assay is T1, human full-length recombinant PKC βII (Homo sapiens, UniProt P05771).
T1 construct: Active human full-length recombinant PKC βII; purchased Invitrogen GmbH, Darmstadt, Germany
The assay is described as follows: Determination of PKC βII inhibition (Caliper mobility-shift kinase assay, Fluorescein-RFARKGSLRQKNV peptide substrate). The class given is biochemical. The conditions noted are these: example compounds at a final concentration of 1.14 μM (±0.15 μM). Here is the method: Determination of PKC βII Inhibition
PKC βII Inhibition was Determined According to the Following Protocol:
Active human full-length recombinant PKC βII and the peptide substrate, Fluorescein-RFARKGSLRQKNV, were purchased from Invitrogen GmbH, Darmstadt, Germany. Adenosine-5′-triphosphate (ATP), bovine serum albumine (BSA), dimethylsulphoxide (DMSO), 4-(2-hydroxyethyl)piperazine-1-ethanesulfonic acid (Hepes), Triton X-100, 1,2-Dioleoyl-sn-glycerol (DAG), L-G-Phosphatidyl-L-serine (PS), calcium chloride (CaCl2), and Pluronic F-68 were purchased from Sigma-Aldrich, Munich, Germany. Magnesium chloride, 1 M sodium hydroxide solution, 1M hydrochloric acid solution and EDTA were obtained from Merck Biosciences, Darmstadt, Germany.
Test compounds were diluted to three times the test concentration in buffer 1 (30 mM Hepes-NaOH, pH 7.4, 0.01% Pluronic F-68 and 3% (v/v) DMSO). The PKC enzyme was diluted to a concentration of 30 ng/ml in buffer 2 (30 mM Hepes-NaOH, pH 7.4, 15 mM MgCl2, 150 μM CaCl2, 150 μg/ml PS, 60 μg/ml DAG, and 0.045% (w/v) Triton X-100). The peptide substrate and ATP were diluted to concentrations of 3 μM and 120 μM, respectively, in buffer 2. Two μl of the compound solution were mixed with 2 μl of the diluted enzyme in a 384-well small volume microtiter plate (Greiner, Bio-One, Frickenhausen, Germany), and the kinase reaction was initiated by addition of 2 μl of the solution containing peptide substrate and ATP. After 60 min incubation at 32° C., the reaction was stopped by addition of 20 μl of a solution containing 130 mM Hepes-NaOH, pH 7.4. 0.0195% (v/v) Brij-35, 6.5 mM EDTA. 0.13% chip coating reagent 3 (Caliper Lifescience Inc, Hopkinton, Mass.) and 6.5% (v/v) DMSO. Phosphorylation of the substrate peptide was then detected on a Caliper 3000 instrument essentially as described by Pommereau et al (J. Biomol. Screening 2004, 9(5), 409-416). Separation conditions were as follows: Pressure −0.8 psi, upstream voltage −3000 V, downstream voltage −800 V. Positive controls (buffer 1 instead of compound) and negative controls (buffer 1 instead of compound and buffer 2 instead of kinase solution) were run in parallel on each plate. Fractional turnover (R) was determined as the height of the peak of the phosphorylated peptide product divided by the sum of the unphosphorylated substrate and phosphorylated product peak heights. Percent-inhibition values for the test compounds were determined using the formula % Inhibition=100*(1−(Rcompound−Rnegative control)/(Rpositive control−Rnegative control).
In the following table % inhibition values observed with example compounds at a final concentration of 1.14 μM (±0.15 μM) are listed: […]

One may read the inhibition as the drop in the measured response relative to a control, in per cent. As usually defined, the % Inhibition is the change of the read-out against control, counted positive when it falls.

T1 sequence (P05771 1-673 isoform P05771-2): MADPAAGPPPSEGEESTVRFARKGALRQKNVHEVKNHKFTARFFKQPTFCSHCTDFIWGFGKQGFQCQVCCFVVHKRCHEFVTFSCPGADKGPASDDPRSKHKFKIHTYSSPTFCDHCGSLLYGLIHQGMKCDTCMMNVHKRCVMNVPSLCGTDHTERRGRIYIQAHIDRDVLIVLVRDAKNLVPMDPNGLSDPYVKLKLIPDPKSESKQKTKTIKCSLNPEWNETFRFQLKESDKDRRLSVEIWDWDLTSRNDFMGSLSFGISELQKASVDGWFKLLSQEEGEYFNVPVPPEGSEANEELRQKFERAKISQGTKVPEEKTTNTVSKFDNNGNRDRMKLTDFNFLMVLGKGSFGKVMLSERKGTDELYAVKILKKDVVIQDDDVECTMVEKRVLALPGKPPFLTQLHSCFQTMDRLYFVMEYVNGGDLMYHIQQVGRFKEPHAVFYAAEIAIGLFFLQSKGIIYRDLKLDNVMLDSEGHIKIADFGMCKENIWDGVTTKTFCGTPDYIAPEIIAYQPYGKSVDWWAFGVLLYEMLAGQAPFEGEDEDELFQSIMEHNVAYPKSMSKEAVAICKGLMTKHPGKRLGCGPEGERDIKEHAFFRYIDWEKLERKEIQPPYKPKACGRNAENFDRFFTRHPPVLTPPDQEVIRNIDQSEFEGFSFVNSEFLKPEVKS

Consider `CO[C@H]1CNC[C@@H]1NC(=O)c1cc(-c2ccc(O)cc2)nc2[nH]nc(C)c12` (racemic) [Example 78, 6-(4-Hydroxy-phenyl)-3-methyl-1H-pyrazolo[3,4-b]pyridine-4-carboxylic acid ((trans)-4-methoxy-pyrrolidin-3-yl)-amide], for which the inhibition at 1.14 µM turned out to be 99%.

Regarding `Cc1n[nH]c2nc(-c3ccc(O)cc3)cc(C(=O)NC3CCCC[C@@H]3N)c12` (mixture of isomers) [Example 123, 6-(4-Hydroxy-phenyl)-3-methyl-1H-pyrazolo[3,4-b]pyridine-4-carboxylic acid (trans-2-amino-cyclohexyl)-amide], the inhibition at 1.14 µM came to 75%. The same measure, in the same setting: the value for `CN[C@H]1CN(C(=O)c2cc(-c3ccc(O)cc3)nc3[nH]nc(C)c23)CC[C@H]1C` (racemic) [Example 229, [6-(4-Hydroxy-phenyl)-3-methyl-1H-pyrazolo[3,4-b]pyridin-4-yl]-(cis-4-methyl-3-methylamino-piperidin-1-yl)-methanone] was 79%.

With `Cc1n[nH]c2nc(-c3ccc(O)cc3)cc(C(=O)N[C@H]3C[C@@H]3N)c12` (racemic) [Example 251, 6-(4-Hydroxy-phenyl)-3-methyl-1H-pyrazolo[3,4-b]pyridine-4-carboxylic acid (trans-2-amino-cyclopropyl)-amide], the inhibition at 1.14 µM came out at 53%. On the same count and under the same terms, under `Cc1n[nH]c2nc(-c3ccc(O)c(F)c3)cc(C(=O)N[C@H]3C[C@@H]3N)c12` (racemic) [Example 307, 6-(3-Fluoro-4-hydroxy-phenyl)-3-methyl-1H-pyrazolo[3,4-b]pyridine-4-carboxylic acid (trans-2-amino-cyclopropyl)-amide] stands 59%; under `CN[C@H]1CN(C(=O)c2cc(-c3ccc(O)c(F)c3)nc3[nH]nc(C)c23)CC[C@H]1C` (racemic) [Example 312, [6-(3-Fluoro-4-hydroxy-phenyl)-3-methyl-1H-pyrazolo[3,4-b]pyridin-4-yl]-(cis-4-methyl-3-methylamino-piperidin-1-yl)-methanone], 54%.

Consider `Cc1n[nH]c2nc(-c3ccc(O)cc3F)cc(C(=O)N3CCN[C@@H](C)[C@H]3C)c12` (racemic) [Example 442, ((cis)-2,3-Dimethyl-piperazin-1-yl)-[6-(2-fluoro-4-hydroxy-phenyl)-3-methyl-1H-pyrazolo[3,4-b]pyridin-4-yl]-methanone], for which the inhibition at 1.14 µM stood at 97%. Still for that read-out and setting: under `Cc1n[nH]c2nc(-c3ccc(O)cc3)cc(C(=O)N3C[C@H](C)NC[C@H]3C)c12` (relative stereo) [Example 73, (trans-2,5-Dimethyl-piperazin-1-yl)-[6-(4-hydroxy-phenyl)-3-methyl-1H-pyrazolo[3,4-b]pyridin-4-yl]-methanone] stands 95%. Same read-out and setting: the value for `Cc1ccc([C@@H]2CNC[C@H]2NC(=O)c2cc(-c3ccc(O)cc3)nc3[nH]nc(C)c23)cc1` (relative stereo) [Example 119, 6-(4-Hydroxy-phenyl)-3-methyl-1H-pyrazolo[3,4-b]pyridine-4-carboxylic acid (trans-4-p-tolyl-pyrrolidin-3-yl)-amide] was 91%. On the same count and under the same terms, under `Cc1n[nH]c2nc(-c3ccc(O)cc3)cc(C(=O)N[C@@H]3CCCC[C@@H]3N)c12` (relative stereo) [Example 126, 6-(4-Hydroxy-phenyl)-3-methyl-1H-pyrazolo[3,4-b]pyridine-4-carboxylic acid (cis-2-amino-cyclohexyl)-amide] stands 48%; under `Cc1n[nH]c2nc(-c3ccc(O)cc3F)cc(C(=O)N3C[C@@H](c4ccccc4)NC[C@@H]3C)c12` (relative stereo) [Example 447, [6-(2-Fluoro-4-hydroxy-phenyl)-3-methyl-1H-pyrazolo[3,4-b]pyridin-4-yl]-(trans-2-methyl-5-phenyl-piperazin-1-yl)-methanone], 83%. `Cc1n[nH]c2nc(-c3ccc(O)cc3)cc(C(=O)N3CCNC(c4ccccc4)C3)c12` (single isomer, unassigned) [Example 456, [6-(4-Hydroxy-phenyl)-3-methyl-1H-pyrazolo[3,4-b]pyridin-4-yl]-(3-phenyl-piperazin-1-yl)-methanone]: the “% Inhibition” value amounted to 88%.

`Cc1n[nH]c2nc(-c3ccc(O)cc3)cc(C(=O)N3CCNC(c4ccccc4)C3)c12` (single isomer, unassigned) [Example 457, [6-(4-Hydroxy-phenyl)-3-methyl-1H-pyrazolo[3,4-b]pyridin-4-yl]-(3-phenyl-piperazin-1-yl)-methanone]: the “% Inhibition” value worked out at 63%.

Consider `Cc1n[nH]c2nc(-c3ccc(O)cc3F)cc(C(=O)N3C[C@@H](c4ccccc4)NC[C@@H]3C)c12` (single isomer, unassigned) [Example 460, [6-(2-Fluoro-4-hydroxy-phenyl)-3-methyl-1H-pyrazolo[3,4-b]pyridin-4-yl]-(trans-2-methyl-5-phenyl-piperazin-1-yl)-methanone], for which the “% Inhibition” value is reported as 61%. On the same count and under the same terms, under `Cc1n[nH]c2nc(-c3ccc(O)cc3F)cc(C(=O)N3C[C@@H](c4ccccc4)NC[C@@H]3C)c12` (single isomer, unassigned) [Example 461, [6-(2-Fluoro-4-hydroxy-phenyl)-3-methyl-1H-pyrazolo[3,4-b]pyridin-4-yl]-(trans-2-methyl-5-phenyl-piperazin-1-yl)-methanone] stands 99%. On to `Cc1n[nH]c2nc(-c3ccc(O)cc3)cc(C(=O)NC34CNCC3C4)c12` (stereo in doubt) [Example 205, 6-(4-Hydroxy-phenyl)-3-methyl-1H-pyrazolo[3,4-b]pyridine-4-carboxylic acid [(R)-3-azabicyclo[3.1.0]hexan-1-yl]-amide], for which the inhibition at 1.14 µM turned out to be 92%. Same read-out and setting: the value for `Cc1n[nH]c2nc(-c3ccc(O)c(F)c3)cc(C(=O)N[C@@H]3[C@H]4CC[C@H](C4)[C@H]3CN)c12` (stereo in doubt) [Example 311, 6-(3-Fluoro-4-hydroxy-phenyl)-3-methyl-1H-pyrazolo[3,4-b]pyridine-4-carboxylic acid (3-aminomethyl-bicyclo[2.2.1]hept-2-yl)-amide] was 74%; that for `Cc1n[nH]c2nc(-c3ccc(O)c(F)c3)cc(C(=O)NC3CN4CCC3CC4)c12` (stereo in doubt) [Example 317, (S)-6-(3-Fluoro-4-hydroxy-phenyl)-3-methyl-1H-pyrazolo[3,4-b]pyridine-4-carboxylic acid (1-aza-bicyclo[2.2.2]oct-3-yl)-amide] was 68%. As to `Cc1n[nH]c2nc(-c3ccc(O)c(F)c3)cc(C(=O)NC3CN4CCC3CC4)c12` (stereo in doubt) [Example 361, (R)-6-(3-Fluoro-4-hydroxy-phenyl)-3-methyl-1H-pyrazolo[3,4-b]pyridine-4-carboxylic acid (1-aza-bicyclo[2.2.2]oct-3-yl)-amide], the inhibition at 1.14 µM came out at 50%. On to `Cc1n[nH]c2nc(-c3ccc(O)cc3)cc(C(=O)N3CCNCC3(C)c3ccccc3)c12` (stereo not drawn) [Example 1, [6-(4-Hydroxy-phenyl)-3-methyl-1H-pyrazolo[3,4-b]pyridin-4-yl]-(2-methyl-2-phenyl-piperazin-1-yl)-methanone], for which the inhibition at 1.14 µM worked out at 98%. On the same count and under the same terms, under `CCc1n[nH]c2nc(-c3ccc(O)c(F)c3)cc(C(=O)N3CCNCC3)c12` [Example 2, [3-Ethyl-6-(3-fluoro-4-hydroxy-phenyl)-1H-pyrazolo[3,4-b]pyridin-4-yl]-piperazin-1-yl-methanone] stands 69%; under `CCc1n[nH]c2nc(-c3ccc(O)cc3)cc(C(=O)N3CCNCC3)c12` [Example 3, [3-Ethyl-6-(4-hydroxy-phenyl)-1H-pyrazolo[3,4-b]pyridin-4-yl]-piperazin-1-yl-methanone], 82%. As for `CCCc1n[nH]c2nc(-c3ccc(O)cc3)cc(C(=O)N3CCNCC3)c12` [Example 4], the inhibition at 1.14 µM was determined as 86%. Take `O=C(c1cc(-c2ccc(O)cc2)nc2[nH]nc(C(F)(F)F)c12)N1CCNCC1` [Example 5, [6-(4-Hydroxy-phenyl)-3-trifluoromethyl-1H-pyrazolo[3,4-b]pyridin-4-yl]-piperazin-1-yl-methanone]: the inhibition at 1.14 µM worked out at 74%.
